Assay results as given in US7056890B2, “Combination therapy for effecting weight loss and treating obesity” (VIVUS, Inc., priority 1999, dated 2006).

How the values were obtained:
[1] = Trial of phentermine in combination with topiramate to effect weight loss in patients; assay type: in vivo, human; settings: follow-up 2-9 weeks
Experimental: Patients as part of the following trial were treated according to the following dosage regimen. Patients took phentermine at a dose of 15 mg daily throughout the weight loss program, before breakfast. For the first 6 days, patients took one 25 mg tablet of topiramate before supper. For the next 6 days, patients took two 25 mg tablets of topiramate before supper. For the next 7 days (days 13–19), patients took 100 mg before supper daily using 4–25 mg tablets of topiramate daily. For days 20–26, patients took 150 mg of topiramate daily consisting of one-half of a 200 mg tablet and two 25-mg mg tablets of topiramate. From that point on, unless instructed otherwise by the physician, patients continued to take one 200 mg topiramate tablet daily before supper and continued the 15 mg phentermine daily in the morning. Patients were advised to drink at least eight (8) full glasses of water daily to reduce the risk of kidney stones which may result from taking topiramate.
Patients were advised that while the effect of phentermine is fairly rapid, the effect of topiramate is slower in onset. The weight reduction effect of topiramate will continue for as long as 18 months on the medication. That is, the patient can expect to continue gradual weight loss for up to 18 months on the medication. Of course, weight loss is maximal if the patient follows diet and/or exercise programs. The weight loss should exceed 15% of the patients starting weight. Thus, if the patient weighs about 200 pounds as of the start date, he/she might expect to lose at least 30 pounds in a period of 12–18 months. The following patient data has been collected.
A total of thirteen patients were treated for 1–9 months with phentermine (15 mg daily) in the morning and up to 400 mg of topiramate (median dose 200 mg), in the evening. […] Along with taking medication, patients were instructed to walk at least 30 minutes three times per week and to follow a low fat diet. No patients had taken diet medication for at least 3 months prior to treatment. Average baseline BMI was 32.5 (range 26–48).

[2] = literature studies; cited from earlier work
[3] = Case history of patient(B), topiramate added to phentermine; assay type: in vivo, human; settings: on phentermine after Redux withdrawal
Experimental: They once weighed as much as 395 pounds. When Redux was still on the mark in the United States, they were treated with a combination of diet, exercise, Redux and phentermine. Their lowest weight attained was 285 pounds. When Redux was withdrawn from the market, they remained on phentermine but gained weight back to 295–300 pounds. When topiramate was added to their regimen, they managed to lose 25 pounds and is currently at 271 pounds, their lowest weight since they were […].

Q: Which results are given for `CC(C)CC(N(C)C)C1(c2ccc(Cl)cc2)CCC1.Cl` (centres unmarked) [Meridia]?
A: Follow-Up Weight (lbs) ([1]; individual patients (one per line), phentermine 15 mg daily, topiramate titrated 25 to 200 mg daily): 177 lbs; Follow-Up Blood Pressure ([1]; individual patients): 120/80; % Weight Loss ([1]; individual patients, versus start weight): 2.7%

Q: For `CCN[C@@H](C)Cc1cccc(C(F)(F)F)c1` [dexfenfluramine], which “weight loss, drug compared with placebo” value [2] is on record?
A: about 5 % of body weight

Q: With `CCCCCCCCCCC[C@@H](C[C@@H]1OC(=O)[C@H]1CCCCCC)OC(=O)[C@H](CC(C)C)NC=O` [orlistat] as the compound, how does the “weight loss, drug compared with placebo” value [2] read?
A: about 5 % of body weight

Q: Which weight regained [3] does the source give for `CC(C)(N)Cc1ccccc1` [phentermine] here?
A: 295–300 pounds

Q: And the “weight loss, drug compared with placebo” value [2]?
A: about 5 % of body weight

Q: With `CC(C)CC(N(C)C)C1(c2ccc(Cl)cc2)CCC1` (centres unmarked) [sibutramine] as the compound, how does the “weight loss, drug compared with placebo” value [2] read?
A: about 5 % of body weight
